# Data reported in patent publication US20260184687A1, “DIHYDROINDENE DERIVATIVES AS MALT1 INHIBITORS” (C4X Discovery Limited, priority 2022, published 2026).
# System: IL-2 release from stimulated Jurkat cells
# Test: Human IL-2 Release Phenotypic Assay (Assay 3)
# Type: cell-based
# Settings: Homo sapiens, Jurkat, 48 h, Jurkat cells (clone E6-1), 200 ng/mL PMA + 300 ng/mL ionomycin, IL-2 by ELISA
# Procedure: This assay measured the inhibition by MALT1 inhibitors of the IL-2 release from stimulated Jurkat cells, a human immortalized T lymphocyte cell line. IL-2 production from Jurkat cells is regulated by activation of NFκB signalling, which is in turn regulated by MALT1 protease activity.
# Jurkat cells (clone E6-1, ATCC) were cultured in RPMI1640 supplemented with 10% (v/v) FBS and 1% (v/v) penicillin/streptomycin (100× liquid stocks). Cells were seeded in 96-well white tissue culture-treated plates (Perkin Elmer) at 50 000 cells/well and incubated overnight at 37° C., 5% CO2. Test compounds in DMSO at half-log dilutions were added to the cells and incubated for 30 mins. Final DMSO concentration was 0.5%. Cells were then stimulated with 200 ng/mL PMA+300 ng/mL ionomycin and incubated for 48 hours. […] IC50 values were calculated using GraphPad Prism using 4-parameter non-linear regression curve fit.
row,IC50 [nM],SMILES
1,1940,"CN(C(=O)C1CCS(=O)(=O)CC1)[C@@H](c1ccc(NC2Cc3ccccc3C2)cc1)C(F)(F)F [Example 3, (S)—N-(1-(4-((2,3-Dihydro-1H-inden-2-yl)amino)phenyl)-2,2,2-trifluoroethyl)-N-methyltetrahydro-2H-thiopyran-4-carboxamide 1,1-dioxide]"
2,180,"CN(C(=O)[C@@H]1CNC(=O)C1)[C@@H](c1ccc(N[C@H]2Cc3ccccc3C2(C)C)cn1)C(F)(F)F [Example 160, (S)—N—((S)-1-(5-(((S)-1,1-Dimethyl-2,3-dihydro-1H-inden-2-yl)amino)pyridin-2-yl)-2,2,2-trifluoroethyl)-N-methyl-5-oxopyrrolidine-3-carboxamide]"
3,510,"CN(C(=O)[C@H]1CNC(=O)C1)[C@@H](c1ccc(N[C@H]2Cc3ccccc3C2(C)C)cn1)C(F)(F)F [Example 166, (R)—N—((S)-1-(5-(((S)-1,1-Dimethyl-2,3-dihydro-1H-inden-2-yl)amino)pyridin-2-yl)-2,2,2-trifluoroethyl)-N-methyl-5-oxopyrrolidine-3-carboxamide]"
4,720,"CC(=O)N1CC[C@H](C(=O)N(C)[C@@H](c2ccc(N[C@H]3Cc4ccccc4C3(C)C)cn2)C(F)(F)F)C1 [Example 169, (S)-1-Acetyl-N—((S)-1-(5-(((S)-1,1-dimethyl-2,3-dihydro-1H-inden-2-yl)amino)pyridin-2-yl)-2,2,2-trifluoroethyl)-N-methylpyrrolidine-3-carboxamide]"
5,210,"CN(C(=O)[C@@H]1CCC(=O)N1)[C@@H](c1ccc(N[C@H]2Cc3ccccc3C2(C)C)cn1)C(F)(F)F [Example 170, (S)—N—((S)-1-(5-(((S)-1,1-Dimethyl-2,3-dihydro-1H-inden-2-yl)amino)pyridin-2-yl)-2,2,2-trifluoroethyl)-N-methyl-5-oxopyrrolidine-2-carboxamide]"
6,400,"CC(=O)N[C@H]1C[C@@H](C(=O)N(C)[C@@H](c2ccc(N[C@H]3Cc4ccccc4C3(C)C)cn2)C(F)(F)F)C1 [Example 182, (1,3-cis)-3-Acetamido-N—((S)-1-(5-(((S)-1,1-dimethyl-2,3-dihydro-1H-inden-2-yl)amino)pyridin-2-yl)-2,2,2-trifluoroethyl)-N-methylcyclobutane-1-carboxamide]"
7,510,"CC(=O)N1C[C@H](O)C[C@H]1C(=O)N(C)[C@@H](c1ccc(N[C@H]2Cc3ccccc3C2(C)C)cn1)C(F)(F)F [Example 183, (2S,4R)-1-Acetyl-N—((S)-1-(5-(((S)-1,1-dimethyl-2,3-dihydro-1H-inden-2-yl)amino)pyridin-2-yl)-2,2,2-trifluoroethyl)-4-hydroxy-N-methylpyrrolidine-2-carboxamide]"
8,460,"CC(=O)N[C@H]1C[C@H](C(=O)N(C)[C@@H](c2ccc(N[C@H]3Cc4ccccc4C3(C)C)cn2)C(F)(F)F)C1 [Example 186, (1,3-trans)-3-Acetamido-N—((S)-1-(5-(((S)-1,1-dimethyl-2,3-dihydro-1H-inden-2-yl)amino)pyridin-2-yl)-2,2,2-trifluoroethyl)-N-methylcyclobutane-1-carboxamide]"
9,440,"CC(=O)N1CC[C@@H](C(=O)N(C)[C@@H](c2ccc(N[C@H]3Cc4ccccc4C3(C)C)cn2)C(F)(F)F)C1 [Example 192, (R)-1-Acetyl-N—((S)-1-(5-(((S)-1,1-dimethyl-2,3-dihydro-1H-inden-2-yl)amino)pyridin-2-yl)-2,2,2-trifluoroethyl)-N-methylpyrrolidine-3-carboxamide]"
10,860,"CN(C(=O)CC1CCS(=O)(=O)CC1)[C@@H](c1ccc(N[C@H]2Cc3ccccc3C2(C)C)cn1)C(F)(F)F [Example 196, N—((S)-1-(5-(((S)-1,1-Dimethyl-2,3-dihydro-1H-inden-2-yl)amino)pyridin-2-yl)-2,2,2-trifluoroethyl)-2-(1,1-dioxidotetrahydro-2H-thiopyran-4-yl)-N-methylacetamide]"
11,430,"CN(C(=O)[C@@H]1CCC(=O)NC1)[C@@H](c1ccc(N[C@H]2Cc3ccccc3C2(C)C)nc1)C(F)(F)F [Example 218, (R)—N—((S)-1-(6-(((S)-1,1-dimethyl-2,3-dihydro-1H-inden-2-yl)amino)pyridin-3-yl)-2,2,2-trifluoroethyl)-N-methyl-6-oxopiperidine-3-carboxamide]"
12,330,CN(C(=O)[C@H]1CCC(=O)NC1)[C@@H](c1ccc(N[C@H]2Cc3ccccc3C2(C)C)nc1)C(F)(F)F [Example 219]
13,260,"CN(C(=O)[C@H]1C[C@H](NS(C)(=O)=O)C1)[C@@H](c1ccc(N[C@H]2Cc3ccccc3C2(C)C)cn1)C(F)(F)F [Example 222, (1,3-trans)-N—((S)-1-(5-(((S)-1,1-Dimethyl-2,3-dihydro-1H-inden-2-yl)amino)pyridin-2-yl)-2,2,2-trifluoroethyl)-N-methyl-3-(methylsulfonamido)cyclobutane-1-carboxamide]"
14,150,"CN(C(=O)C1CCN(S(C)(=O)=O)CC1)[C@@H](c1ccc(N[C@H]2Cc3ccccc3C2(C)C)cn1)C(F)(F)F [Example 223, N—((S)-1-(5-(((S)-1,1-Dimethyl-2,3-dihydro-1H-inden-2-yl)amino)pyridin-2-yl)-2,2,2-trifluoroethyl)-N-methyl-1-(methylsulfonyl)piperidine-4-carboxamide]"
15,200,"CC(=O)N1CCC(C(=O)N(C)[C@@H](c2ccc(N[C@H]3Cc4ccccc4C3(C)C)cn2)C(F)(F)F)CC1 [Example 224, 1-Acetyl-N—((S)-1-(5-(((S)-1,1-dimethyl-2,3-dihydro-1H-inden-2-yl)amino)pyridin-2-yl)-2,2,2-trifluoroethyl)-N-methylpiperidine-4-carboxamide]"
16,330,"CNC(=O)[C@H]1C[C@@H](C(=O)N(C)[C@@H](c2ccc(N[C@H]3Cc4ccccc4C3(C)C)cn2)C(F)(F)F)C1 [Example 240, (1,3-cis)-N^1—((S)-1-(5-(((S)-1,1-Dimethyl-2,3-dihydro-1H-inden-2-yl)amino)pyridin-2-yl)-2,2,2-trifluoroethyl)-N^1,N^3-dimethylcyclobutane-1,3-dicarboxamide]"
17,400,"CN(C(=O)[C@H]1C[C@@H](NS(C)(=O)=O)C1)[C@@H](c1ccc(N[C@H]2Cc3ccccc3C2(C)C)cn1)C(F)(F)F [Example 241, (1,3-cis)-N—((S)-1-(5-(((S)-1,1-Dimethyl-2,3-dihydro-1H-inden-2-yl)amino)pyridin-2-yl)-2,2,2-trifluoroethyl)-N-methyl-3-(methylsulfonamido)cyclobutane-1-carboxamide]"
18,270,"CN(C(=O)[C@@H]1C[C@@H](O)CN1S(C)(=O)=O)[C@@H](c1ccc(N[C@H]2Cc3ccccc3C2(C)C)cn1)C(F)(F)F [Example 244, (2S,4R)—N—((S)-1-(5-(((S)-1,1-Dimethyl-2,3-dihydro-1H-inden-2-yl)amino)pyridin-2-yl)-2,2,2-trifluoroethyl)-4-hydroxy-N-methyl-1-(methylsulfonyl)pyrrolidine-2-carboxamide]"
19,170,"CNC(=O)[C@H]1C[C@H](C(=O)N(C)[C@@H](c2ccc(N[C@H]3Cc4ccccc4C3(C)C)cn2)C(F)(F)F)C1 [Example 247, (1,3-trans)-N—((S)-1-(5-(((S)-1,1-Dimethyl-2,3-dihydro-1H-inden-2-yl)amino)pyridin-2-yl)-2,2,2-trifluoroethyl)-N^1,N^3-dimethylcyclobutane-1,3-dicarboxamide]"
20,860,"Cc1cc2c(cc1C)CC(Nc1ccc([C@H](N(C)C(=O)C3CCS(=O)(=O)CC3)C(F)(F)F)nc1)C2 [Example 260, (S)—N-(1-(5-((5,6-Dimethyl-2,3-dihydro-1H-inden-2-yl)amino)pyridin-2-yl)-2,2,2-trifluoroethyl)-N-methyltetrahydro-2H-thiopyran-4-carboxamide 1,1-dioxide]"
21,350,"CN(C(=O)[C@@H]1CNC(=O)C1)[C@@H](c1ccc(N[C@H]2Cc3ccc(Cl)cc3C2)cn1)C(F)(F)F [Example 300, (S)—N—((S)-1-(5-(((S)-5-Chloro-2,3-dihydro-1H-inden-2-yl)amino)pyridin-2-yl)-2,2,2-trifluoroethyl)-N-methyl-5-oxopyrrolidine-3-carboxamide]"

# Same assay, conditions: Jurkat cells (clone E6-1), 200 ng/mL PMA + 300 ng/mL ionomycin, 48 hours, IL-2 by ELISA
row,IC50 [nM],SMILES
1,2700,"CN(C(=O)C1CCC(=O)NC1)[C@@H](c1ccc(NC2Cc3ccccc3C2(C)C)cn1)C(F)(F)F (single isomer, unassigned) [Example 104]"

# Target: T1, FL hMALT1 enzyme (Homo sapiens, UniProt Q9UDY8);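 note: Cell-free protease assay: enzyme preincubated with compound 30 min at room temperature, then cleavage of fluorogenic Ac-LVSR-AMC substrate (100 µM) tracked by fluorescence (ex 360/em 460 nm)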
# T1 sequence (Q9UDY8 1-824): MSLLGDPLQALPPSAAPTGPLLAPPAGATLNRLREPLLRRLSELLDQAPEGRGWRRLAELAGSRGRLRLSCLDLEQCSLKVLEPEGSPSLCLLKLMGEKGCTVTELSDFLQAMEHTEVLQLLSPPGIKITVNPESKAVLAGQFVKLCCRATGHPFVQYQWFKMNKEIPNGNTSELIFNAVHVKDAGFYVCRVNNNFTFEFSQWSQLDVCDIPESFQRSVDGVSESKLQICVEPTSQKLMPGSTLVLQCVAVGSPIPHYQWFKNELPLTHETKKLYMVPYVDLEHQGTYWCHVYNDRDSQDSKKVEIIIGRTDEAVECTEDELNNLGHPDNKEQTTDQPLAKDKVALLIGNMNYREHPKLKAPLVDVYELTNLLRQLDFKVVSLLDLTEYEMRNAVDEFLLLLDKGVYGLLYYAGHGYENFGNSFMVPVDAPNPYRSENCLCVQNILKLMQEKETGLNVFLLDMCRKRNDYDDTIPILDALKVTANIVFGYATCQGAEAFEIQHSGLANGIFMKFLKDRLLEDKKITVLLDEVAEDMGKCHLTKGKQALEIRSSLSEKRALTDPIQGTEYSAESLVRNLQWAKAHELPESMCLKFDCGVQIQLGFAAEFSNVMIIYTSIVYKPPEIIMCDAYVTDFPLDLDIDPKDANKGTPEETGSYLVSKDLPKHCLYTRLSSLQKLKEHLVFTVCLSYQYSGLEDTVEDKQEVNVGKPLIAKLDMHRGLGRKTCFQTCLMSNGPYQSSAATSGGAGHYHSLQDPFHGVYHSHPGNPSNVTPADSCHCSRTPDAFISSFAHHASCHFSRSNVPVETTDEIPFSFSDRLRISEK
# Test: biochemical
# Settings: not given
row,IC50 [nM],SMILES
1,140,"CN(C(=O)C1CCC(=O)NC1)[C@@H](c1ccc(NC2Cc3ccccc3C2(C)C)cn1)C(F)(F)F (single isomer, unassigned) [Example 104]"
